Legend:
Assay type in all cases: in vivo
[1] = system: upland rice (Oryza sp., var. Tebonnet, RICE); assay: Pre-emerge test, crop safety; conditions: pre-emerge, rated 14 days after application, 0 = no damage, 100 = complete death
Method in brief: (§1)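 Visual ratings on a 0-100 scale (0 no damage, 100 all plants dead) were taken at 14 days after treatment. Rates of 15-1000 g ai/ha in acetone, 187 l/ha, were sprayed onto soil one day after planting (pre-emerge) or onto 2-3 leaf plants with 0.25% v/v surfactant (post-emerge).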

[2] = system: field corn (Zea mays L., var. Dekalb 535, CORN); assay: Pre-emerge test, crop safety; conditions: pre-emerge, rated 14 days after application, 0 = no damage, 100 = complete death
Method in brief: as §1

[3] = system: upland rice (Oryza sp., var. Tebonnet, RICE); assay: Post-emerge test, crop safety; conditions: phytotoxicity rating 0-100 (0 no damage, 100 complete death), 14 days after application
Method in brief: (§2)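 Each test used a mechanized track sprayer delivering 187 l/ha of acetone solution at 15–1000 g ai/ha. Post-emerge foliage at 2–3 leaves was treated with added 0.25% v/v non-ionic surfactant and bottom-watered only. Injury was assessed on day 14, where 100 means total kill.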

[4] = system: field corn (Zea mays L., var. Dekalb 535, CORN); assay: Post-emerge test, crop safety; conditions: phytotoxicity rating 0-100 (0 no damage, 100 complete death), 14 days after application
Method in brief: as §2

[5] = system: redroot pigweed (Amaranthus retroflexus, AMARE); assay: Pre-emerge test, greenhouse herbicide activity screening; conditions: pre-emerge, rated 14 days after application, 0 = no damage, 100 = complete death
Method in brief: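 Rating: 0–100 visual injury, 14 DAA. Application: acetone, 187 l/ha, 15–1000 g ai/ha, flat-fan track sprayer with nozzle 40–45 cm above soil or canopy. Post-emerge runs used 0.25% v/v surfactant on 2–3 leaf plants.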

[6] = system: velvetleaf (Abutilon theophrasti, ABUTH); assay: Post-emerge test, greenhouse herbicide activity screening; conditions: phytotoxicity rating 0-100 (0 no damage, 100 complete death), 14 days after application
Method in brief: (§3)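 Compounds in acetone were track-sprayed at 15-1000 g ai/ha (187 l/ha) on sandy loam pots: pre-emerge one day after seeding, post-emerge at 2-3 leaf stage with 0.25% v/v non-ionic surfactant. Phytotoxicity was rated 14 days later on a 0 (no damage) to 100 (complete death) scale.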

[7] = system: common ragweed (Ambrosia artemisizfolia L., AMBEL); assay: as above; conditions: phytotoxicity rating 0-100 (0 no damage, 100 complete death), 14 days after application
Method in brief: as §3

[8] = system: ivyleaf morningglory (Ipomoea hederacea, IPOHE); assay: as above; conditions: phytotoxicity rating 0-100 (0 no damage, 100 complete death), 14 days after application
Method in brief: as §3

[9] = system: sicklepod (Cassia obtusifolia, CASOB); assay: as above; conditions: phytotoxicity rating 0-100 (0 no damage, 100 complete death), 14 days after application
Method in brief: as §3

[10] = system: barnyardgrass (Echinochloa crus-galli, ECHCG); assay: as above; conditions: phytotoxicity rating 0-100 (0 no damage, 100 complete death), 14 days after application
Method in brief: as §3

[11] = system: redroot pigweed (Amaranthus retroflexus, AMARE); assay: as above; conditions: phytotoxicity rating 0-100 (0 no damage, 100 complete death), 14 days after application
Method in brief: as §3

[12] = system: lambsquarters (Chenopodium album, CHEAL); assay: as above; conditions: phytotoxicity rating 0-100 (0 no damage, 100 complete death), 14 days after application
Method in brief: as §3

[13] = system: johnsongrass (Sorghum halepense, SORHA); assay: as above; conditions: phytotoxicity rating 0-100 (0 no damage, 100 complete death), 14 days after application
Method in brief: as §3

[14] = system: green foxtail (Setaria viridis, SETVI); assay: as above; conditions: phytotoxicity rating 0-100 (0 no damage, 100 complete death), 14 days after application
Method in brief: as §3

[15] = system: large crabgrass (Digitaria sanguinalis, DIGSA); assay: as above; conditions: phytotoxicity rating 0-100 (0 no damage, 100 complete death), 14 days after application
Method in brief: as §3

[16] = system: velvetleaf (Abutilon theophrasti, ABUTH); assay: Pre-emerge test, greenhouse herbicide activity screening; conditions: pre-emerge, rated 14 days after application, 0 = no damage, 100 = complete death
Method in brief: (§4)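 Plants grown in 10 cm pots of sandy loam mix received acetone-dissolved compounds through a moving flat-fan nozzle. Doses ranged from 15 to 1000 g ai/ha. Pre-emerge pots were seeded one day earlier, post-emerge pots 8–21 days earlier. Fourteen days on, each pot was graded 0–100 for damage.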

[17] = system: common ragweed (Ambrosia artemisizfolia L., AMBEL); assay: as above; conditions: pre-emerge, rated 14 days after application, 0 = no damage, 100 = complete death
Method in brief: as §4

[18] = system: ivyleaf morningglory (Ipomoea hederacea, IPOHE); assay: as above; conditions: pre-emerge, rated 14 days after application, 0 = no damage, 100 = complete death
Method in brief: as §4

[19] = system: sicklepod (Cassia obtusifolia, CASOB); assay: as above; conditions: pre-emerge, rated 14 days after application, 0 = no damage, 100 = complete death
Method in brief: as §4

[20] = system: barnyardgrass (Echinochloa crus-galli, ECHCG); assay: as above; conditions: pre-emerge, rated 14 days after application, 0 = no damage, 100 = complete death
Method in brief: as §4

[21] = system: lambsquarters (Chenopodium album, CHEAL); assay: as above; conditions: pre-emerge, rated 14 days after application, 0 = no damage, 100 = complete death
Method in brief: as §4

[22] = system: johnsongrass (Sorghum halepense, SORHA); assay: as above; conditions: pre-emerge, rated 14 days after application, 0 = no damage, 100 = complete death
Method in brief: as §4

[23] = system: green foxtail (Setaria viridis, SETVI); assay: as above; conditions: pre-emerge, rated 14 days after application, 0 = no damage, 100 = complete death
Method in brief: as §4

[24] = system: large crabgrass (Digitaria sanguinalis, DIGSA); assay: as above; conditions: pre-emerge, rated 14 days after application, 0 = no damage, 100 = complete death
Method in brief: as §4

## COc1c(Cl)cc(F)c(-n2c(=O)cc(C(F)(F)F)n(C)c2=O)c1NC(=O)C(F)(F)F [2-10]
[1]; 63 g ai/ha
  Pre-emerge crop damage RICE (phytotoxicity rating, scale 0-100): 0
[1]; 250 g ai/ha
  Pre-emerge crop damage RICE (phytotoxicity rating, scale 0-100): 30
[2]; 63 g ai/ha
  Pre-emerge crop damage CORN (phytotoxicity rating, scale 0-100): 0
[2]; 250 g ai/ha
  Pre-emerge crop damage CORN (phytotoxicity rating, scale 0-100): 40
[3]; 63 g ai/ha
  Post-emerge Herbicidal Activity RICE (crop damage): 0
[3]; 250 g ai/ha
  Post-emerge Herbicidal Activity RICE (crop damage): 5
[4]; 63 g ai/ha
  Post-emerge Herbicidal Activity CORN (crop damage): 5
[4]; 250 g ai/ha
  Post-emerge Herbicidal Activity CORN (crop damage): 0
[5]; 63 g ai/ha
  Pre-emerge Herbicidal Activity AMARE (phytotoxicity rating, scale 0-100): 50
[5]; 250 g ai/ha
  Pre-emerge Herbicidal Activity AMARE (phytotoxicity rating, scale 0-100): 100
[6]; 63 g ai/ha
  Post-emerge Herbicidal Activity ABUTH: 95
[6]; 250 g ai/ha
  Post-emerge Herbicidal Activity ABUTH: 100
[7]; 63 g ai/ha
  Post-emerge Herbicidal Activity AMBEL: 0
[7]; 250 g ai/ha
  Post-emerge Herbicidal Activity AMBEL: 50
[8]; 63 g ai/ha
  Post-emerge Herbicidal Activity IPOHE: 60
[8]; 250 g ai/ha
  Post-emerge Herbicidal Activity IPOHE: 100
[9]; 63 g ai/ha
  Post-emerge Herbicidal Activity CASOB: 0
[9]; 250 g ai/ha
  Post-emerge Herbicidal Activity CASOB: 10
[10]; 63 g ai/ha
  Post-emerge Herbicidal Activity ECHCG: 0
[10]; 250 g ai/ha
  Post-emerge Herbicidal Activity ECHCG: 60
[11]; 63 g ai/ha
  Post-emerge Herbicidal Activity AMARE: 0
[11]; 250 g ai/ha
  Post-emerge Herbicidal Activity AMARE: 30
[12]; 63 g ai/ha
  Post-emerge Herbicidal Activity CHEAL: 50
[12]; 250 g ai/ha
  Post-emerge Herbicidal Activity CHEAL: 90
[13]; 63 g ai/ha
  Post-emerge Herbicidal Activity SORHA: 0
[13]; 250 g ai/ha
  Post-emerge Herbicidal Activity SORHA: 20
[14]; 63 g ai/ha
  Post-emerge Herbicidal Activity SETVI: 0
[14]; 250 g ai/ha
  Post-emerge Herbicidal Activity SETVI: 70
[15]; 63 g ai/ha
  Post-emerge Herbicidal Activity DIGSA: 0
[15]; 250 g ai/ha
  Post-emerge Herbicidal Activity DIGSA: 40
[16]; 63 g ai/ha
  Pre-emerge Herbicidal Activity ABUTH (phytotoxicity rating, scale 0-100): 100
[16]; 250 g ai/ha
  Pre-emerge Herbicidal Activity ABUTH (phytotoxicity rating, scale 0-100): 100
[17]; 63 g ai/ha
  Pre-emerge Herbicidal Activity AMBEL (phytotoxicity rating, scale 0-100): 100
[17]; 250 g ai/ha
  Pre-emerge Herbicidal Activity AMBEL (phytotoxicity rating, scale 0-100): 100
[18]; 63 g ai/ha
  Pre-emerge Herbicidal Activity IPOHE (phytotoxicity rating, scale 0-100): 60
[18]; 250 g ai/ha
  Pre-emerge Herbicidal Activity IPOHE (phytotoxicity rating, scale 0-100): 100
[19]; 63 g ai/ha
  Pre-emerge Herbicidal Activity CASOB (phytotoxicity rating, scale 0-100): 50
[19]; 250 g ai/ha
  Pre-emerge Herbicidal Activity CASOB (phytotoxicity rating, scale 0-100): 90
[20]; 63 g ai/ha
  Pre-emerge Herbicidal Activity ECHCG (phytotoxicity rating, scale 0-100): 0
[20]; 250 g ai/ha
  Pre-emerge Herbicidal Activity ECHCG (phytotoxicity rating, scale 0-100): 95
[21]; 63 g ai/ha
  Pre-emerge Herbicidal Activity CHEAL (phytotoxicity rating, scale 0-100): 100
[21]; 250 g ai/ha
  Pre-emerge Herbicidal Activity CHEAL (phytotoxicity rating, scale 0-100): 100
[22]; 63 g ai/ha
  Pre-emerge Herbicidal Activity SORHA (phytotoxicity rating, scale 0-100): 0
[22]; 250 g ai/ha
  Pre-emerge Herbicidal Activity SORHA (phytotoxicity rating, scale 0-100): 80
[23]; 63 g ai/ha
  Pre-emerge Herbicidal Activity SETVI (phytotoxicity rating, scale 0-100): 40
[23]; 250 g ai/ha
  Pre-emerge Herbicidal Activity SETVI (phytotoxicity rating, scale 0-100): 100
[24]; 63 g ai/ha
  Pre-emerge Herbicidal Activity DIGSA (phytotoxicity rating, scale 0-100): 90
[24]; 250 g ai/ha
  Pre-emerge Herbicidal Activity DIGSA (phytotoxicity rating, scale 0-100): 95

Reference: patent publication US6355799B1, “Substituted benzene compounds, process for their preparation, and herbicidal and defoliant compositions containing them” (ISK Americas Incorporated, priority 1997, dated 2002)
